PubChem BioAssay (NCI)
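Tested at 5 concentrations; 48 h exposure; 96-well plates; endpoints linearly interpolated, else capped at highest concentration. The concentration for 50% growth inhibition is given as GI50. TGI is the concentration that stops growth completely.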

Columns and labels:
Experiment in all cases: NCI tumour cell line growth inhibition, 48 h
[1] = tested on: TK-10 renal
[2] = tested on: M14 melanoma
[3] = tested on: SR leukemia
[4] = tested on: CAKI-1 renal
[5] = tested on: SN12C renal
[6] = tested on: MDA-MB-435
[7] = tested on: U251 CNS
[8] = tested on: CCRF-CEM leukemia
[9] = tested on: T-47D breast
[10] = tested on: BT-549 breast
[11] = tested on: MDA-MB-231 breast
[12] = tested on: NCI-H226 lung
[13] = tested on: SF-539 CNS
[14] = tested on: NCI-H522 lung
[15] = tested on: SK-MEL-2 melanoma
[16] = tested on: HL-60(TB) leukemia
[17] = tested on: OVCAR-4 ovarian
[18] = tested on: KM12 colon
[19] = tested on: MALME-3M melanoma
[20] = tested on: NCI-H23 lung
[21] = tested on: SK-MEL-28 melanoma
[22] = tested on: OVCAR-5 ovarian
[23] = tested on: HOP-92 NSCLC
[24] = tested on: HCC-2998 colon
[25] = tested on: MOLT-4 leukemia
[26] = tested on: IGROV1 ovarian
[27] = tested on: RPMI-8226 leukemia
[28] = tested on: SK-OV-3 ovarian
[29] = tested on: HCT-116 colon
[30] = tested on: SW-620 colon
[31] = tested on: NCI-H460 lung
[32] = tested on: HS 578T breast
[33] = tested on: HT29 colon
[34] = tested on: SK-MEL-5 melanoma
[35] = tested on: UO-31 renal
[36] = tested on: K-562 leukemia
[37] = tested on: MCF7 breast
[38] = tested on: SF-295 CNS
[39] = tested on: A549 NSCLC
[40] = tested on: UACC-62 melanoma
[41] = tested on: OVCAR-8 ovarian
[42] = tested on: ACHN renal
[43] = tested on: OVCAR-3 ovarian
[44] = tested on: PC-3 prostate
[45] = tested on: HCT-15 colon
[46] = tested on: HOP-62 NSCLC
[47] = tested on: COLO 205 colon
[48] = tested on: EKVX NSCLC
[49] = tested on: NCI/ADR-RES ovarian
[50] = tested on: LOX IMVI melanoma
[51] = tested on: DU-145 prostate
[52] = tested on: 786-0 renal
[53] = tested on: SNB-19 CNS
[54] = tested on: SNB-75 CNS
[55] = tested on: SF-268 CNS
[56] = tested on: RXF 393 renal
[57] = tested on: A498 renal
[58] = tested on: UACC-257 melanoma

With `CC(C)(Oc1ccc(Cl)cc1)C(=O)NC1C2CC3CC1CC(NS(C)(=O)=O)(C3)C2` (centres undefined) the GI50 [1] was over 100 µM, the TGI [1] was over 100 µM and the GI50 [2] was 26.2 µM. For the same molecule, the TGI [2] was 80.1 µM, the GI50 [3] was 18.5 µM and the TGI [3] was 58.9 µM. It also gave a GI50 [4] of over 100 µM, a TGI [4] of over 100 µM and a GI50 [5] of over 100 µM. For the same molecule, the TGI [5] was over 100 µM, the GI50 [6] was over 100 µM and the TGI [6] was over 100 µM. It also gave a GI50 [7] of over 100 µM, a TGI [7] of over 100 µM and a GI50 [8] of 39.1 µM. It also gave a TGI [8] of over 100 µM, a GI50 [9] of over 100 µM and a TGI [9] of over 100 µM. For the same molecule, the GI50 [10] was 29.1 µM, the TGI [10] was 83.2 µM and the GI50 [11] was 66.8 µM. For the same molecule, the TGI [11] was over 100 µM, the GI50 [12] was over 100 µM and the TGI [12] was over 100 µM. For the same molecule, the GI50 [13] was 37.5 µM, the TGI [13] was over 100 µM and the GI50 [14] was over 100 µM. For the same molecule, the TGI [14] was over 100 µM, the GI50 [15] was over 100 µM and the TGI [15] was over 100 µM. It also gave a GI50 [16] of 22.7 µM, a TGI [16] of 58.8 µM and a GI50 [17] of 23.3 µM. The TGI [17] was over 100 µM, the GI50 [18] was over 100 µM and the TGI [18] was over 100 µM. The GI50 [19] was 55.5 µM, the TGI [19] was over 100 µM and the GI50 [20] was over 100 µM. For the same molecule, the TGI [20] was over 100 µM, the GI50 [21] was 26.8 µM and the TGI [21] was over 100 µM. For the same molecule, the GI50 [22] was 68.4 µM, the TGI [22] was over 100 µM and the GI50 [23] was 19 µM. It also gave a TGI [23] of 69.1 µM, a GI50 [24] of over 100 µM and a TGI [24] of over 100 µM. For the same molecule, the GI50 [25] was 20.7 µM, the TGI [25] was 84.6 µM and the GI50 [26] was 54.9 µM. The TGI [26] was over 100 µM, the GI50 [27] was 20.9 µM and the TGI [27] was 68.1 µM. It also gave a GI50 [28] of over 100 µM, a TGI [28] of over 100 µM and a GI50 [29] of 38.5 µM. The TGI [29] was over 100 µM, the GI50 [30] was over 100 µM and the TGI [30] was over 100 µM. For the same molecule, the GI50 [31] was over 100 µM, the TGI [31] was over 100 µM and the GI50 [32] was 33.2 µM. For the same molecule, the TGI [32] was over 100 µM, the GI50 [33] was over 100 µM and the TGI [33] was over 100 µM. It also gave a GI50 [34] of over 100 µM, a TGI [34] of over 100 µM and a GI50 [35] of over 100 µM. For the same molecule, the TGI [35] was over 100 µM, the GI50 [36] was 34.3 µM and the TGI [36] was over 100 µM. For the same molecule, the GI50 [37] was over 100 µM, the TGI [37] was over 100 µM and the GI50 [38] was over 100 µM. The TGI [38] was over 100 µM, the GI50 [39] was over 100 µM and the TGI [39] was over 100 µM. For the same molecule, the GI50 [40] was 24.1 µM, the TGI [40] was over 100 µM and the GI50 [41] was over 100 µM. The TGI [41] was over 100 µM, the GI50 [42] was 27.4 µM and the TGI [42] was over 100 µM. The GI50 [43] was over 100 µM, the TGI [43] was over 100 µM and the GI50 [44] was 30.7 µM. For the same molecule, the TGI [44] was over 100 µM, the GI50 [45] was over 100 µM and the TGI [45] was over 100 µM. For the same molecule, the GI50 [46] was over 100 µM, the TGI [46] was over 100 µM and the GI50 [47] was over 100 µM. It also gave a TGI [47] of over 100 µM, a GI50 [48] of over 100 µM and a TGI [48] of over 100 µM. It also gave a GI50 [49] of over 100 µM, a TGI [49] of over 100 µM and a GI50 [50] of over 100 µM. It also gave a TGI [50] of over 100 µM, a GI50 [51] of over 100 µM and a TGI [51] of over 100 µM. It also gave a GI50 [52] of 37.4 µM, a TGI [52] of over 100 µM and a GI50 [53] of over 100 µM. The TGI [53] was over 100 µM, the GI50 [54] was 42.8 µM and the TGI [54] was over 100 µM. The GI50 [55] was over 100 µM and the TGI [55] was over 100 µM.
`Cc1nn(-c2ccccc2)c(-n2ccnc2)c1/C=N/Nc1nc(-c2ccc(Cl)c(Cl)c2)cs1` gave a GI50 [1] of 20.3 µM, a TGI [1] of 63.2 µM and a GI50 [2] of 4.11 µM. For the same molecule, the TGI [2] was 30.6 µM, the GI50 [4] was 5.55 µM and the TGI [4] was 20 µM. For the same molecule, the GI50 [5] was 4.2 µM, the TGI [5] was 20.1 µM and the GI50 [6] was 84.7 µM. It also gave a TGI [6] of over 100 µM, a GI50 [7] of 4.28 µM and a TGI [7] of 20.7 µM. The GI50 [8] was 3.96 µM, the TGI [8] was over 100 µM and the GI50 [9] was 6.65 µM. It also gave a TGI [9] of over 100 µM, a GI50 [56] of 2.29 µM and a TGI [56] of 6.12 µM. The GI50 [10] was 5.88 µM, the TGI [10] was 45 µM and the GI50 [11] was 2.49 µM. For the same molecule, the TGI [11] was 11.2 µM, the GI50 [12] was 1.91 µM and the TGI [12] was 10.8 µM. The GI50 [13] was 3.66 µM, the TGI [13] was 14.2 µM and the GI50 [14] was 13.4 µM. It also gave a TGI [14] of 68.1 µM, a GI50 [15] of 17.5 µM and a TGI [15] of 50.8 µM. It also gave a GI50 [16] of 6.91 µM, a TGI [16] of over 100 µM and a GI50 [17] of 1.48 µM. For the same molecule, the TGI [17] was 3.76 µM, the GI50 [18] was 7.89 µM and the TGI [18] was over 100 µM. For the same molecule, the GI50 [19] was 1.95 µM, the TGI [19] was 9.21 µM and the GI50 [20] was 1.94 µM. It also gave a TGI [20] of 9.9 µM, a GI50 [21] of 3.89 µM and a TGI [21] of 19.7 µM. For the same molecule, the GI50 [22] was 14.9 µM, the TGI [22] was 57.6 µM and the GI50 [23] was 0.214 µM. For the same molecule, the TGI [23] was 3.49 µM, the GI50 [24] was 5.1 µM and the TGI [24] was 46.8 µM. It also gave a GI50 [25] of 7.33 µM, a TGI [25] of over 100 µM and a GI50 [57] of 7.98 µM. It also gave a TGI [57] of 35.9 µM, a GI50 [26] of 6.07 µM and a TGI [26] of 26.2 µM. The GI50 [27] was 0.65 µM, the TGI [27] was 8.83 µM and the GI50 [28] was 23.5 µM. The TGI [28] was 69.4 µM, the GI50 [29] was 1.9 µM and the TGI [29] was 4.75 µM. The GI50 [30] was 3.36 µM, the TGI [30] was 53.4 µM and the GI50 [31] was 3.04 µM. It also gave a TGI [31] of 10.7 µM, a GI50 [58] of 17.7 µM and a TGI [58] of 85.3 µM. The GI50 [32] was 2.95 µM, the TGI [32] was 28.9 µM and the GI50 [33] was 4.99 µM. It also gave a TGI [33] of over 100 µM, a GI50 [34] of 2.54 µM and a TGI [34] of 12.9 µM. It also gave a GI50 [35] of 2.3 µM, a TGI [35] of 21.8 µM and a GI50 [36] of 2.49 µM. For the same molecule, the TGI [36] was over 100 µM, the GI50 [37] was 2.17 µM and the TGI [37] was 6.37 µM. For the same molecule, the GI50 [38] was 5.21 µM, the TGI [38] was 20.3 µM and the GI50 [39] was 2.72 µM. For the same molecule, the TGI [39] was 10 µM, the GI50 [40] was 7.6 µM and the TGI [40] was 31.9 µM. For the same molecule, the GI50 [41] was 3.44 µM, the TGI [41] was 22.3 µM and the GI50 [42] was 3.97 µM. It also gave a TGI [42] of 16.9 µM, a GI50 [43] of 1.68 µM and a TGI [43] of 3.44 µM. The GI50 [44] was 3.02 µM, the TGI [44] was 18.7 µM and the GI50 [45] was 4.09 µM. The TGI [45] was over 100 µM, the GI50 [46] was 5.92 µM and the TGI [46] was 29.7 µM. The GI50 [47] was 4.46 µM, the TGI [47] was over 100 µM and the GI50 [48] was 5.7 µM. It also gave a TGI [48] of 36.5 µM, a GI50 [49] of 2.31 µM and a TGI [49] of 9.02 µM. It also gave a GI50 [50] of 3.01 µM, a TGI [50] of 13.4 µM and a GI50 [51] of 3.15 µM. For the same molecule, the TGI [51] was 13.3 µM, the GI50 [52] was 3.21 µM and the TGI [52] was 13.3 µM. For the same molecule, the GI50 [53] was 16.2 µM, the TGI [53] was 92.3 µM and the GI50 [54] was 1.66 µM. It also gave a TGI [54] of 5.35 µM, a GI50 [55] of 9.37 µM and a TGI [55] of 37.5 µM.
